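Growth conditions: 96-well plates. Treatment: test compound, 48 hours, 5 concentrations. Analysis: linear interpolation between bracketing concentrations; unreached endpoints set to highest concentration. TGI: concentration producing complete growth inhibition.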
Tests used:
Assay in all cases: growth of human tumour cells (NCI), 48 h
786-0 renal = tested on: 786-0 renal
A498 renal = tested on: A498 renal
A549 NSCLC = tested on: A549 NSCLC
ACHN renal = tested on: ACHN renal
CAKI-1 renal = tested on: CAKI-1 renal
CCRF-CEM leukemia = tested on: CCRF-CEM leukemia
EKVX NSCLC = tested on: EKVX NSCLC
HCC-2998 colon = tested on: HCC-2998 colon
HCT-116 colon = tested on: HCT-116 colon
HCT-15 colon = tested on: HCT-15 colon
HL-60(TB) leukemia = tested on: HL-60(TB) leukemia
HOP-62 NSCLC = tested on: HOP-62 NSCLC
HOP-92 NSCLC = tested on: HOP-92 NSCLC
HT29 colon = tested on: HT29 colon
IGROV1 ovarian = tested on: IGROV1 ovarian
K-562 leukemia = tested on: K-562 leukemia
KM12 colon = tested on: KM12 colon
KM20L2 colon = tested on: KM20L2 colon
LOX IMVI melanoma = tested on: LOX IMVI melanoma
LXFL 529 NSCLC = tested on: LXFL 529 NSCLC
M14 melanoma = tested on: M14 melanoma
M19-MEL melanoma = tested on: M19-MEL melanoma
MALME-3M melanoma = tested on: MALME-3M melanoma
MOLT-4 leukemia = tested on: MOLT-4 leukemia
NCI-H226 lung = tested on: NCI-H226 lung
NCI-H23 lung = tested on: NCI-H23 lung
NCI-H460 lung = tested on: NCI-H460 lung
NCI-H522 lung = tested on: NCI-H522 lung
OVCAR-3 ovarian = tested on: OVCAR-3 ovarian
OVCAR-4 ovarian = tested on: OVCAR-4 ovarian
OVCAR-5 ovarian = tested on: OVCAR-5 ovarian
OVCAR-8 ovarian = tested on: OVCAR-8 ovarian
RPMI-8226 leukemia = tested on: RPMI-8226 leukemia
SF-268 CNS = tested on: SF-268 CNS
SF-295 CNS = tested on: SF-295 CNS
SF-539 CNS = tested on: SF-539 CNS
SK-MEL-2 melanoma = tested on: SK-MEL-2 melanoma
SK-MEL-28 melanoma = tested on: SK-MEL-28 melanoma
SK-MEL-5 melanoma = tested on: SK-MEL-5 melanoma
SK-OV-3 ovarian = tested on: SK-OV-3 ovarian
SN12C renal = tested on: SN12C renal
SNB-19 CNS = tested on: SNB-19 CNS
SNB-78 CNS = tested on: SNB-78 CNS
SR leukemia = tested on: SR leukemia
SW-620 colon = tested on: SW-620 colon
TK-10 renal = tested on: TK-10 renal
U251 CNS = tested on: U251 CNS
UACC-257 melanoma = tested on: UACC-257 melanoma
UACC-62 melanoma = tested on: UACC-62 melanoma
UO-31 renal = tested on: UO-31 renal
XF 498 CNS = tested on: XF 498 CNS
COLO 205 colon = tested on: COLO 205 colon
DLD-1 colon = tested on: DLD-1 colon
DMS 273 small cell lung = tested on: DMS 273 small cell lung
RXF 393 renal = tested on: RXF 393 renal
SNB-75 CNS = tested on: SNB-75 CNS

Measured: TGI

CC(C)(C=O)CC(C#N)/C(=N\NC(N)=O)C(=O)Nc1ccccc1C(N)=O (stereo not drawn)
not listed: COLO 205 colon | DLD-1 colon | DMS 273 small cell lung | RXF 393 renal | SNB-75 CNS
> 100 µM: all other assays above

CCCC(C)NC1=C(NC(C)=O)C(=O)c2ccccc2C1=O (stereo not drawn)
not listed: A498 renal | CAKI-1 renal | OVCAR-5 ovarian | RPMI-8226 leukemia
> 100 µM: all other assays above

Source: PubChem BioAssay (NCI)
